Patent US20040260084A1, “Novel c-3 s/o-and s/n formaldehe acetal derivatives of cephalosporins and their use as antibotics” (priority 2001, published 2004)

Tests used:
[1] = tested on: Escherichia coli DSM 1103; assay: MIC, agar dilution (DIFCO Bacto Nutrient Agar); type: cell-based
Procedure: (§1) The plates were then inoculated with a bacterial suspension obtained by diluting an overnight culture (37° C.) in DIFCO Bacto Nutrient Broth (pH 6.8) with sterile 1% NaCl (1:1000) using a 19 pin inoculator (Mast Diagnostics). MIC's […] were determined 18 h after incubation at 37° C.
(§2) Inoculum effect after inoculation with an non-diluted overnight culture (in comparison to Table 1). MIC's (μ/ml) were determined 18 h after incubation at 37° C.

[2] = tested on: Escherichia coli TEM 1; assay: MIC, agar dilution (DIFCO Bacto Nutrient Agar); type: cell-based
Procedure: as §1, §2

[3] = tested on: Staph. aureus 25768; assay: MIC, agar dilution (DIFCO Bacto Nutrient Agar); type: cell-based
Procedure: as §1, §2

[4] = tested on: Staph. aureus DSM 1104; assay: MIC, agar dilution (DIFCO Bacto Nutrient Agar); type: cell-based
Procedure: as §1, §2

[5] = tested on: Staph. aureus resistant; assay: MIC, agar dilution (DIFCO Bacto Nutrient Agar); type: cell-based
Procedure: as §1, §2

[6] = Chemical stability, half-life of hydrolysis by UV spectroscopy; type: physicochemical; settings: 37° C.
Procedure: The half-lives (h) of hydrolysis was determined at 37° C. by UV spectroscopy in physiological phosphate buffer and in physiological NaCl solution containing 0.01 N HCl.

[7] = Blood serum stability, agar diffusion test with Escherichia coli TEM 1; type: in vitro ADME; settings: sterile bovine serum (OXOID), 37° C.
Procedure: The stability in blood serum was determined microbiologically using agar diffusion test with Escherichia coli TEM 1. The compounds I were incubated with sterile bovine serum (OXOID) at 37° C. At 0 h, 1 h, 2 h and 4 h intervals aliquot samples were spotted and remaining amounts of active antibiotic were calculated from the inhibition diameters (18-30 mm) in comparison with those (15-30 mm) obtained with 30 μg, 15 μg, 7.5μ and 3.75 μg of antibiotic.

[8] = tested on: E. coli 3981 TEM-1; assay: In vivo activity, experimental systemic infection in mice; settings: Escherichia coli
Procedure: In vivo activity (ED50) was determined. Mice were infected intraperitoneally with ca. […] of E. coli 3981 TEM-1. Untreated animals died within 48 h after infection. Compounds were administered by oral or subcutaneous route a first time 10 min after infection and a second time 4 h later. The 50% effective dose (ED50) was calculated by the Spearman-Kärber method from the percentages of animals surviving to day 7 at each dose.

[9] = Escherichia coli DSM 1103, inoculum ca. 10^4, 18 h at 37° C.
[10] = Escherichia coli DSM 1103, inoculum ca. 10^7 (non-diluted overnight culture), 18 h at 37° C.
[11] = Escherichia coli TEM 1, inoculum ca. 10^4, 18 h at 37° C.
[12] = Escherichia coli TEM 1, inoculum ca. 10^7 (non-diluted overnight culture), 18 h at 37° C.
[13] = Staph. aureus 25768, inoculum ca. 10^4, 18 h at 37° C.
[14] = Staph. aureus 25768, inoculum ca. 10^7 (non-diluted overnight culture), 18 h at 37° C.
[15] = Staph. aureus DSM 1104, inoculum ca. 10^4, 18 h at 37° C.
[16] = Staph. aureus DSM 1104, inoculum ca. 10^7 (non-diluted overnight culture), 18 h at 37° C.
[17] = inoculum ca. 10^4, 18 h at 37° C.
[18] = inoculum ca. 10^7 (non-diluted overnight culture), 18 h at 37° C.
[19] = pH 2, physiological NaCl solution containing 0.01 N HCl
[20] = pH 7.4, physiological phosphate buffer

SMILES | MIC [1, 9] [pig/ml] | MIC [1, 10] [μ/ml] | MIC [2, 11] [pig/ml] | MIC [2, 12] [μ/ml] | MIC [3, 13] [pig/ml] | MIC [3, 14] [μ/ml] | MIC [4, 15] [pig/ml] | MIC [4, 16] [μ/ml] | MIC [5, 17] [pig/ml] | MIC [5, 18] [μ/ml] | half-life [6, 19] [days] | half-life [6, 20] [days] | half-life [7] [days] | ED50 ([8]; 3981TEM1, po) [mg/kg] | ED50 ([8]; 3981TEM1, sc) [mg/kg]
COCSC1=C(C(=O)O)N2C(=O)[C@@H](NC(=O)[C@H](N)c3ccccc3)[C@H]2SC1 [Cephalosporin 1c, (2′R,6R,7R)-7-(2′amino-2′-phenylacetamino)-3-methoxymethylthio-8-oxo-5-thia-1-aza-bicyclo[4.2.0]oct-2-ene-2-carboxylic acid] | 4 | 4 | >64 | 32 | 8 | 32 | 0.2 | 0.5 | 2 | 8 | 7.12 | 7.54 |  |  | 
COCSC1=C(C(=O)[O-])N2C(=O)[C@@H](NC(=O)/C(=N\OCC(=O)[O-])c3csc(N)n3)[C@H]2SC1.[K+].[K+] [Cephalosporin 1b, dipotassium (6R,7R)-7-[(Z)-2-(2-amino-thiazol-4-yl)-2-carboxy-methoximino-acetylamino]-3-methoxymethylthio-8-oxo-5-thia-1-aza-bicyclo[4.2.0]oct-2-ene-2-carboxylate] | 2 | 2 | 2 | 2 | >64 | >64 | 4 | 4 | 16 | 32 | 16.6 | 17.5 | 0.113 |  | 
COCSC1=C(C(=O)[O-])N2C(=O)[C@@H](NC(=O)/C(=N\OC)c3csc(N)n3)[C@H]2SC1.[K+] [Cephalosporin 1a, potassium (6R,7R)-7-[(Z)-2-(2-amino-thiazol-4-yl)-2-methoximino-acetylamino]-3methoxymethylthio-8-oxo-5-thia-1-aza-bicyclo[4.2.0]oct-2-ene-2-carboxylate] | 1 | 1 | 2 | 2 | 16 | 32 | 0.5 | 0.5 | 2 | 4 | 15.6 | 16.9 | 0.2 | 8.35 | 0.84
